Reference: patent US20240245789A1, “POLYMER CONJUGATES OF DRUGS TARGETING 5-HT AND OTHER RECEPTORS IN THE CENTRAL NERVOUS SYSTEM (CNS) THAT ALSO TARGETS RECEPTORS OUTSIDE OF THE CNS” (Arbormentis LLC, priority 2021, published 2024)

Assays:
[1] = system: mice fed with standard diet; conditions: 0.05 mg/kg daily
NMDAR1 receptor = experiment: protein expression of NMDAR1 in the liver of NAFLD mice
CCL-2 = experiment: mRNA expression of CCL2 in HepG2 cells (in vitro NAFLD model); conditions: PA:OA mix
TNF-α = experiment: mRNA expression of TNF-α in HepG2 cells (in vitro NAFLD model); conditions: PA:OA mix

SMILES	signs of hepatic damage (hepatotoxicity) [1]	expression of the NMDAR1 receptor in the liver (NMDAR1 receptor)	mRNA expression of CCL-2 (CCL-2)	mRNA expression of TNF-α (TNF-α)
CN(C)CCc1c[nH]c2cccc(OP(=O)(O)O)c12 [psilocybin]	no signs of hepatic damage were observed			
CN(C)CCc1c[nH]c2cccc(O)c12 [psilocin]		counteracting its overexpression induced by steatosis	reduction in the mRNA expression	reduction in the mRNA expression
